Laboratory results from patent US20040126755A1, “Gene expression based method for distinguishing metastatic from non-metastatic forms of a tumor, and use in designing therapeutic drugs” (priority 2001, published 2004).

Key:
Format in all cases: cell-based, human
[1] = tested on: Daoy cells; assay: Fibronectin-mediated cell migration assay (Boyden chamber, Chemicon QCM-FN)
Description: Fibronectin-mediated cell adhesion and migration were assessedusing the Chemicon QCM-FN Quantitative Cell Migration Assay (Chemicon International). Briefly, Daoy cells were grown in EMEM withh 10% FBS to 80% confluency and starved in serum-free EMEM for 24 h. Cells were washed twice with PBS, harvested them with trypsin/EDTA, and resuspended them in serum-free EMEM (1×10^6 cells/ml) with 5% BSA for 1 h. We subsequently incubated cells at 37 ° C. for 30 min with either no antibody, 0.6 ug/ml of neutralizing monoclonal anti-human PDGFRA antibody (R&D Systems), 0.6 ug/mi isotype-matched control antibody (R&D Systems), and or first pretreated them with 10 μM of MAP2K1/MAP2K2 inhibitor U0126 (Cell Signaling Technology) for 1 h. We based the concentration of antibody used on the ND50 for this lot of antibody for blocking 10 ng/ml of PDGFRA biologic activity on human WS1 cells (per R&D Systems product insert). We based the concentration of MAP2K1/MAP2K2 inhibitor U0126 used on the manufacturer?s recommendation. Following incubations, we resuspended the cells, and placed aliquots of 2×10^5 cells in 200 ul of serum-free EMEM into the upper fibronectin-(FN-) coated or BSA-coated (control) Boyden chambers (migration assay), or FN-coated wells (adhesion assay). The lower well contained 0, 1, 2, 4, 6, 8, or 10 ng/ml PDGFA (Chemicon) in 300 ll serum-free EMEM. We incubated the cells for 3 h at 37° C., stained them with cell stain solution (Chemicon), and subsequently washed them. We removed the medium, as well as non-adherent or non-migrating cells, from the upper side of the Boyden chamber membranes. We first visualized the cells by microscopy, and then subsequently eluted migrating or adherent cells with extraction solution (Chemicon) according to the manufacturer? s instructions. We aliquoted eluant (50 μl)×2 for each test sample into microtiter plates, and read the optical density (OD540-570) on a ThermoMax microplate reader (Molecular Devices). Using standardized migration rates of 130 cells per mm^2 equivalent to an OD550 of 0.270 (per Chemicon product insert), we obtained the final cell counts by averaging the two OD measurements (540 nm and 570 nm) after subtraction of the BSA control measurements (background), and determined significance (P value) using a t-test.
We tested the significance of PDGFRA in the metastatic potential of Daoy cells by fibronectin-dependent adhesion and migration assays.
To further test whether medulloblastoma migration is directly linked in part to downstream MAP2K1, MAP2K2 and MAPK1/3 activation, Daoy migration was tested in an identical fashion to that described above, except that cells were pretreated with U0126, a highly specific chemical inhibitor of MAP2K1 and MAP2K2 (FIG. 5b).

[2] = tested on: MAPK1/3; assay: Western blot, phospho-MAPK1/3 to total ratio in Daoy cell lysates
Description: (§1) Daoy cells were treated in a manner identical to that described above for migration. After described incubation with PDGFA, PDGFRA antibody, or MAP2K1/MAP2K2 inhibitor U0126, we prepared cell lysates by adding 500 ul lysis buffer (Cell Signaling Technology) to cell pellets on ice for 20 min, sonicating, and centrifuging at 10,000 RPM for 10 min. We collected the supernatants and mixed equal amounts of lysate protein (5.2 ug) in a 1:1 mixture with Tris-Glycine SDS sample buffer Covex). Samples were run on a 12% SDS-PAGE gel (BioRad) along with broad range protein markers (BioRad) at 125 V for 1 h. We transferred proteins to PVDF membrane (NEN Life Sciences) using a semi-dry transfer cell (BioRad). We first soaked the membrane in anhydrous methanol for 2 min, deionized water for 5 min, and transfer buffer (25 mM Tris, 0.2 M glycine, 20% methanol, pH 8.5) for 10 min. The gels were pre-soaked in transfer buffer for 15 min and subsequently electro-blotted to the membrane between filter paper soaked in transfer buffer for 45 min at a current equivalent to 2.5 × total gel area (cm^2). Following blotting, we incubated the membrane in blocking buffer (3% BSA in TBS-T) for 1 h at room temperature with gentle agitation. We subsequently incubated the membrane with primary antibody (MAP2K1/2 antibody, phospho-MAP2K1/2 (Ser217/221) antibody, MAPK1/3 (p42/p44 MAPK) antibody, or phospho-MAPK1/3 (Thr202/Tyr204) antibody; Cell Signaling Technology) diluted 1:1000 in blocking buffer overnight at 4° C. We washed the membranes in wash buffer (1% BSA in TBS-T) 3 times (1× for 10 min and 2× for 5 min) and incubated them with anti-rabbit HRP-conjugated secondary antibody (Cell Signaling Technology) diluted 1:2000 in blocking buffer for 1 h with gentle agitation at room temperature. We subsequently washed membranes with gentle agitation 5 times with 1%BSA in TBS-T (1× for 10 min in, 4× for 5 min) and once in TBS-T for 5 min. […] We scanned the developed films, and determined the optical density of each lane using NIH Image (available at http://rsb.info.nih.gov/nih-image/Default.html). […]

[3] = tested on: Daoy cells; assay: Fibronectin-mediated cell adhesion assay (Chemicon QCM-FN); conditions: increasing concentrations of PDGFA, no antibody
Description: Fibronectin-mediated cell adhesion and migration were assessedusing the Chemicon QCM-FN Quantitative Cell Migration Assay (Chemicon International). Briefly, Daoy cells were grown in EMEM withh 10% FBS to 80% confluency and starved in serum-free EMEM for 24 h. Cells were washed twice with PBS, harvested them with trypsin/EDTA, and resuspended them in serum-free EMEM (1×10^6 cells/ml) with 5% BSA for 1 h. We subsequently incubated cells at 37 ° C. for 30 min with either no antibody, 0.6 ug/ml of neutralizing monoclonal anti-human PDGFRA antibody (R&D Systems), 0.6 ug/mi isotype-matched control antibody (R&D Systems), and or first pretreated them with 10 μM of MAP2K1/MAP2K2 inhibitor U0126 (Cell Signaling Technology) for 1 h. […] We aliquoted eluant (50 μl)×2 for each test sample into microtiter plates, and read the optical density (OD540-570) on a ThermoMax microplate reader (Molecular Devices). Using standardized migration rates of 130 cells per mm^2 equivalent to an OD550 of 0.270 (per Chemicon product insert), we obtained the final cell counts by averaging the two OD measurements (540 nm and 570 nm) after subtraction of the BSA control measurements (background), and determined significance (P value) using a t-test. […]

[4] = tested on: MAP2K1; assay: Western blot, phospho-MAP2K1 to total ratio in Daoy cell lysates; conditions: PDGFA 10 ng/ml
Description: as §1, with “agitation.” for “agitation. We subsequently incubated the membrane with primary antibody (MAP2K1/2 antibody, phospho-MAP2K1/2 (Ser217/221) antibody, MAPK1/3 (p42/p44 MAPK) antibody, or phospho-MAPK1/3 (Thr202/Tyr204) antibody; Cell Signaling Technology) diluted 1:1000 in blocking buffer overnight at 4° C. We washed the membranes in wash buffer (1% BSA in TBS-T) 3 times (1× for 10 min and 2× for 5 min) and incubated them with anti-rabbit HRP-conjugated secondary antibody (Cell Signaling Technology) diluted 1:2000 in blocking buffer for 1 h with gentle agitation at room temperature. We subsequently washed membranes with gentle agitation 5 times with 1%BSA in TBS-T (1× for 10 min in, 4× for 5 min) and once in TBS-T for 5 min.”

[5] = tested on: MAP2K2; assay: Western blot, phospho-MAP2K2 to total ratio in Daoy cell lysates; conditions: PDGFA 10 ng/ml
Description: as §1, with “agitation.” for “agitation. We subsequently incubated the membrane with primary antibody (MAP2K1/2 antibody, phospho-MAP2K1/2 (Ser217/221) antibody, MAPK1/3 (p42/p44 MAPK) antibody, or phospho-MAPK1/3 (Thr202/Tyr204) antibody; Cell Signaling Technology) diluted 1:1000 in blocking buffer overnight at 4° C. We washed the membranes in wash buffer (1% BSA in TBS-T) 3 times (1× for 10 min and 2× for 5 min) and incubated them with anti-rabbit HRP-conjugated secondary antibody (Cell Signaling Technology) diluted 1:2000 in blocking buffer for 1 h with gentle agitation at room temperature. We subsequently washed membranes with gentle agitation 5 times with 1%BSA in TBS-T (1× for 10 min in, 4× for 5 min) and once in TBS-T for 5 min.”

Compound | decreased cell migration, % ([1]; U0126 10 μM pretreatment, no PDGFA) | migration, % of normal baseline migration ([1]; U0126 treated cells, 1 ng/ml PDGFA) | Daoy cell migration ([1]; U0126 treated cells, 1 ng/ml PDGFA, baseline 275, P<0.05) | migration, % of normal baseline migration ([1]; U0126 treated cells, 10 ng/ml PDGFA) | Daoy cell migration ([1]; U0126 treated cells, 10 ng/ml PDGFA, baseline 275, P<0.05) | Daoy cell migration ([1]; U0126 treated cells, no PDGFA, untreated 275, P<0.05) | decrease in baseline phosphorylation of MAPK1/3, fold ([2]; U0126 10 μM pretreatment 1 h, at start of migration assay) | effect on PDGFA-mediated MAPK1/3 phosphorylation ([2]; U0126 pre-treatment then PDGFA (FIG. 6b)) | effect on adhesion of Daoy cells to fibronectin [3] | stimulation of Daoy migration across fibronectin-coated membranes, fold ([1]; 1 ng/ml PDGFA in lower well, vs no PDGFA) | Daoy cell migration ([1]; 1 ng/ml PDGFA in lower well, untreated 212) | Daoy cell migration ([1]; 4 ng/ml PDGFA in lower well, untreated 212) | increase in Daoy migration, fold ([1]; 10 ng/ml PDGFA in lower well, vs no PDGFA) | Daoy cell migration ([1]; 10 ng/ml PDGFA in lower well, untreated 212) | increase in MAP2K1 phosphorylation, fold [4] | increase in MAP2K2 phosphorylation, fold [5] | increase in MAPK1/3 phosphorylation, fold ([2]; PDGFA 10 ng/ml)
N#CC(=C(/N)Sc1ccccc1N)/C(C#N)=C(\N)Sc1ccccc1N [U0126] | 50% | 57% | 158 cells/mm^2 | 65% | 188 cells/mm^2 | 139 cells/mm^2 | 9 fold | blocks PDGFA-mediated MAPK1/3 phosphorylation |  |  |  |  |  |  |  |  | 
PDGFA: PDGFRA ligand, growth factor (Chemicon) used to stimulate Daoy cells |  |  |  |  |  |  |  |  | did not affect the adhesion | approximately 3 fold | 640 cells/mm^2 | 819 cells/mm^2 | 4 fold | 847 cells/mm^2 | 1.6 fold | 1.3 fold | 1.7 fold
